According to ChEMBL document CHEMBL4507290 (2021):

Tests used:
[1] = target: Bone morphogenetic protein receptor type-1A (Homo sapiens) (UniProt P36894); settings: Compound concentration 1000.0 nM
[2] = target: Cyclin-dependent kinase-like 2 (Homo sapiens) (UniProt Q92772); settings: Compound concentration 1000.0 nM
[3] = target: Death-associated protein kinase 1 (Homo sapiens) (UniProt P53355); settings: Compound concentration 1000.0 nM
[4] = target: Ephrin type-A receptor 1 (Homo sapiens) (UniProt P21709); settings: Compound concentration 1000.0 nM
[5] = target: Mitogen-activated protein kinase 1 (Homo sapiens) (UniProt P28482); settings: Compound concentration 1000.0 nM
Mitogen-activated protein kinase 1 (Homo sapiens), sequence (P28482 whole entry): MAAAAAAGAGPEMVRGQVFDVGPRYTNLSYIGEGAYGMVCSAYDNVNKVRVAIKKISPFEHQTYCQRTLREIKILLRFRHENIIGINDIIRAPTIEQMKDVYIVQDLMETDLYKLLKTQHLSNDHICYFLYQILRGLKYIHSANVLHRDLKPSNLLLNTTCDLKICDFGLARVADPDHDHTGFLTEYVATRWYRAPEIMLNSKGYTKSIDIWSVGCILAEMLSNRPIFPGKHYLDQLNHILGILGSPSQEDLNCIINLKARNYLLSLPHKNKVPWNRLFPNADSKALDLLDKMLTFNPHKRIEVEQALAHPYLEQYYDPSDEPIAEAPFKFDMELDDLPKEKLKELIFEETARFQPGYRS

[6] = target: Fibroblast growth factor receptor 4 (Homo sapiens) (UniProt P22455); settings: Compound concentration 1000.0 nM
[7] = target: Vascular endothelial growth factor receptor 1 (Homo sapiens) (UniProt P17948); settings: Compound concentration 1000.0 nM
[8] = system: Receptor-type tyrosine-protein kinase FLT3 (Homo sapiens), P36888 [UNDEFINED MUTATION]; settings: Compound concentration 1000.0 nM
Receptor-type tyrosine-protein kinase FLT3 (Homo sapiens), P36888 [UNDEFINED MUTATION], sequence (P36888 whole entry, looked up, change not shown): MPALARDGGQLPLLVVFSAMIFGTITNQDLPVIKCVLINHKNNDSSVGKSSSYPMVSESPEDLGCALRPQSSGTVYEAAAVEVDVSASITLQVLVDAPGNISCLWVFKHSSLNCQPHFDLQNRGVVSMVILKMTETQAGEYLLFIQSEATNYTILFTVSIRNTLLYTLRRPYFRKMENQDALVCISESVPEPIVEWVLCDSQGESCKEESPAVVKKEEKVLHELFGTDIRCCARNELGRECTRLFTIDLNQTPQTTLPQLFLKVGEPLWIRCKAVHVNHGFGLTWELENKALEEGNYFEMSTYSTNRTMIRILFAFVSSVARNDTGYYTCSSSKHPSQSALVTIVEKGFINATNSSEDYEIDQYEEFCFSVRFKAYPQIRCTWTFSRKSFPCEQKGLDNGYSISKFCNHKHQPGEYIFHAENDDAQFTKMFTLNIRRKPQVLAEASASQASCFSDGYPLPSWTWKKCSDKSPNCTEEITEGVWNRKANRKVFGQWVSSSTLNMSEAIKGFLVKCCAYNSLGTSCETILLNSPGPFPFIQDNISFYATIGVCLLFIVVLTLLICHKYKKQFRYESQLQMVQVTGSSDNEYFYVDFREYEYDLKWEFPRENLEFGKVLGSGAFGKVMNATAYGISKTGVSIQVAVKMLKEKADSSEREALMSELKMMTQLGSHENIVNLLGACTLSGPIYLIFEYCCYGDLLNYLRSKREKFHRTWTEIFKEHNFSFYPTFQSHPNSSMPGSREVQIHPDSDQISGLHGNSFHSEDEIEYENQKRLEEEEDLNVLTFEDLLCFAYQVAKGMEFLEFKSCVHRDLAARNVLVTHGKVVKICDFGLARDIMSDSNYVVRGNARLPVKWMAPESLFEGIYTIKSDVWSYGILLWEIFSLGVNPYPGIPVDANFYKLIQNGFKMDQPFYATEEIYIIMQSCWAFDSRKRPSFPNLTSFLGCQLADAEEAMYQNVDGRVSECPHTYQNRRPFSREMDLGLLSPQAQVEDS

[9] = system: Receptor-type tyrosine-protein kinase FLT3 (Homo sapiens), P36888 [UNDEFINED MUTATION]; settings: Compound concentration 1000.0 nM; remark: listed apart in the source
[10] = target: Tyrosine-protein kinase HCK (Homo sapiens) (UniProt P08631); settings: Compound concentration 1000.0 nM
[11] = system: Mast/stem cell growth factor receptor Kit (Homo sapiens), P10721 [D816H]; settings: Compound concentration 1000.0 nM
Mast/stem cell growth factor receptor Kit (Homo sapiens), P10721 [D816H], sequence (P10721 whole entry D816H, the tested form may be a part): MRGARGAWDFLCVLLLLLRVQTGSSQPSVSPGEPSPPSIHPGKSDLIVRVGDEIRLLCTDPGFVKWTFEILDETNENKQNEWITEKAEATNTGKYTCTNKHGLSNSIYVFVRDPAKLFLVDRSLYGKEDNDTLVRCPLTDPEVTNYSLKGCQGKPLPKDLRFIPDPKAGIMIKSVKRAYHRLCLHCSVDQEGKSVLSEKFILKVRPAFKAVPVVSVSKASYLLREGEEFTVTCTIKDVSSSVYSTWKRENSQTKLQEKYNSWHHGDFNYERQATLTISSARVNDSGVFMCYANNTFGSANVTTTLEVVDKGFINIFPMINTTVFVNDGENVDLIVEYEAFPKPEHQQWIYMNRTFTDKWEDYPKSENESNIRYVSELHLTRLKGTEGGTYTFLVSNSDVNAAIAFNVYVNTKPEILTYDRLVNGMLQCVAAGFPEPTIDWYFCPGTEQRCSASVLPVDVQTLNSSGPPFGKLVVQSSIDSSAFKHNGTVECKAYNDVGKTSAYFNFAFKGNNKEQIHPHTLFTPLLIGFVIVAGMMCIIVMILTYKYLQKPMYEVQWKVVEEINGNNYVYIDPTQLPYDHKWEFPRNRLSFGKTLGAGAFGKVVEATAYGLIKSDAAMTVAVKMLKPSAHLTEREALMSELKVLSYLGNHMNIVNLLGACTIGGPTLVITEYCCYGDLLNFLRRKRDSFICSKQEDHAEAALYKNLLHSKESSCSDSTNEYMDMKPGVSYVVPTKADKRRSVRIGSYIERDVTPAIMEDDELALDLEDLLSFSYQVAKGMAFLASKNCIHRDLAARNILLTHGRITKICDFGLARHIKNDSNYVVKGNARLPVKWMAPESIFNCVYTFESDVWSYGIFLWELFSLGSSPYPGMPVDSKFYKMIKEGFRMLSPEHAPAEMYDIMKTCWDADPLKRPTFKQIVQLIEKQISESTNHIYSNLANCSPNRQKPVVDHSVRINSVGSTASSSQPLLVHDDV

[12] = target: LIM domain kinase 2 (Homo sapiens) (UniProt P53671); settings: Compound concentration 1000.0 nM
[13] = target: Mitogen-activated protein kinase kinase kinase 13 (Homo sapiens) (UniProt O43283); settings: Compound concentration 1000.0 nM
[14] = target: Mitogen-activated protein kinase kinase kinase 3 (Homo sapiens) (UniProt Q99759); settings: Compound concentration 1000.0 nM
[15] = target: Serine/threonine-protein kinase MARK2 (Homo sapiens) (UniProt Q7KZI7); settings: Compound concentration 1000.0 nM
[16] = target: Macrophage-stimulating protein receptor (Homo sapiens) (UniProt Q04912); settings: Compound concentration 1000.0 nM
[17] = target: Myosin-IIIb (Homo sapiens) (UniProt Q8WXR4); settings: Compound concentration 1000.0 nM
Myosin-IIIb (Homo sapiens), sequence (Q8WXR4 whole entry): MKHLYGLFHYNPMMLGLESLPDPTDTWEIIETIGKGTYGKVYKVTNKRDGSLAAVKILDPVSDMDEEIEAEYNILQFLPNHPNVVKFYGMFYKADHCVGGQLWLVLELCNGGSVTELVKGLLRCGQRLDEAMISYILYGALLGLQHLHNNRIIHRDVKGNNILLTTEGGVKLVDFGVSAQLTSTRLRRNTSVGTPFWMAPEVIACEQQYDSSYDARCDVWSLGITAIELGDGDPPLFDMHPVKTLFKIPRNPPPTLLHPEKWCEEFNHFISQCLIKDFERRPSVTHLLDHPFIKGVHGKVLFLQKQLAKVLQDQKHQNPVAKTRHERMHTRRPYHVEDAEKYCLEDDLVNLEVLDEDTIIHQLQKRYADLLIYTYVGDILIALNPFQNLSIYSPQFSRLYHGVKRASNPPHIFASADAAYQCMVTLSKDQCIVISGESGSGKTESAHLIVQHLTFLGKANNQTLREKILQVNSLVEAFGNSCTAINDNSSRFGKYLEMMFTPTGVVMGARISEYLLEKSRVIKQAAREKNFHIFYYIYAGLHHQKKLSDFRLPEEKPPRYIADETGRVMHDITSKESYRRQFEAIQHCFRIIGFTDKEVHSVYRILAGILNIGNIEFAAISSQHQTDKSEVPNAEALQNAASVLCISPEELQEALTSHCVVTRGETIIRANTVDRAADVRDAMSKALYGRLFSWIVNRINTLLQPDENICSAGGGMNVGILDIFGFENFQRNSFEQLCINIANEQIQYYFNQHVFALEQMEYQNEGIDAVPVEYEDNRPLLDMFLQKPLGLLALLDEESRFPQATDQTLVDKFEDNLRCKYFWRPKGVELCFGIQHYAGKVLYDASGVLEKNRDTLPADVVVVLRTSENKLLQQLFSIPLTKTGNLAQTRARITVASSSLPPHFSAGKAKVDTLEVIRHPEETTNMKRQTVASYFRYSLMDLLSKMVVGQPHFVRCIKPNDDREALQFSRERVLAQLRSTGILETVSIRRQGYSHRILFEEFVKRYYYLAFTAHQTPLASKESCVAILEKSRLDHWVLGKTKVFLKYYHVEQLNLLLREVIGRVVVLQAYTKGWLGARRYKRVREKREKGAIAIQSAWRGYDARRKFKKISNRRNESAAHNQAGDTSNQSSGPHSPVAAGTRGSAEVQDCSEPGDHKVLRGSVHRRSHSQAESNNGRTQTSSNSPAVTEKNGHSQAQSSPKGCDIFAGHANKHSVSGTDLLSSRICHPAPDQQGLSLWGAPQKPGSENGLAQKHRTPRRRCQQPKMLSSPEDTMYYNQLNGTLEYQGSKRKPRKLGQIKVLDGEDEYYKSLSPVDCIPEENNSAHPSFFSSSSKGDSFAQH

[18] = target: Serine/threonine-protein kinase Nek1 (Homo sapiens) (UniProt Q96PY6); settings: Compound concentration 1000.0 nM
[19] = target: Serine/threonine-protein kinase PAK 6 (Homo sapiens) (UniProt Q9NQU5); settings: Compound concentration 1000.0 nM
[20] = system: Phosphatidylinositol 4,5-bisphosphate 3-kinase catalytic subunit alpha isoform (Homo sapiens), P42336 [C420R]; settings: Compound concentration 1000.0 nM
[21] = system: Phosphatidylinositol 4,5-bisphosphate 3-kinase catalytic subunit alpha isoform (Homo sapiens), P42336 [M1043I]; settings: Compound concentration 1000.0 nM
[22] = target: Phosphatidylinositol 4,5-bisphosphate 3-kinase catalytic subunit gamma isoform (Homo sapiens) (UniProt P48736); settings: Compound concentration 1000.0 nM
[23] = target: Phosphatidylinositol 4-kinase beta (Homo sapiens) (UniProt Q9UBF8); settings: Compound concentration 1000.0 nM
Phosphatidylinositol 4-kinase beta (Homo sapiens), sequence (Q9UBF8 2-816 limits assumed): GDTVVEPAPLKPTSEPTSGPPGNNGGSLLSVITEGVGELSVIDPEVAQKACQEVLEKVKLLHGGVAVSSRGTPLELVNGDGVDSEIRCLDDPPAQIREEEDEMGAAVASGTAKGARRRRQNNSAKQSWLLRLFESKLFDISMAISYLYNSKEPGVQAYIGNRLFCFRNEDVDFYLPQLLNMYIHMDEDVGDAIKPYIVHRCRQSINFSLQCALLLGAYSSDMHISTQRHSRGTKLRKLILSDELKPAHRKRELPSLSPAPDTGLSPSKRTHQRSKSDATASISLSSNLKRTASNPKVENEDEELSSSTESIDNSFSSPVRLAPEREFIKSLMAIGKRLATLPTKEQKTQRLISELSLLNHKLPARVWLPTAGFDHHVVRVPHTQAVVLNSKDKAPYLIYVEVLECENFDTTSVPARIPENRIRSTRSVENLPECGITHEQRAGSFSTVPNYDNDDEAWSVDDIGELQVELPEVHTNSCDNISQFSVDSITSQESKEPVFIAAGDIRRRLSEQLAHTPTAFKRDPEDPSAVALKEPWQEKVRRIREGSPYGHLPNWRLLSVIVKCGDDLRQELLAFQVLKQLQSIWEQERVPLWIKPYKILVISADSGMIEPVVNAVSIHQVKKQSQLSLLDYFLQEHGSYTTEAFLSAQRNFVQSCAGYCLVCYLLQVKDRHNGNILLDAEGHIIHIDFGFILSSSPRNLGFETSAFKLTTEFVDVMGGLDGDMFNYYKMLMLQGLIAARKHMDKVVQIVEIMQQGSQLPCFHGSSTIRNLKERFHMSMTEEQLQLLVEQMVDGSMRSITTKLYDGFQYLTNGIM

[24] = target: 1-phosphatidylinositol 3-phosphate 5-kinase (Homo sapiens) (UniProt Q9Y2I7); settings: Compound concentration 1000.0 nM
[25] = target: Phosphatidylinositol 4-phosphate 5-kinase type-1 gamma (Homo sapiens) (UniProt O60331); settings: Compound concentration 1000.0 nM
[26] = target: Serine/threonine-protein kinase N1 (Homo sapiens) (UniProt Q16512); settings: Compound concentration 1000.0 nM
[27] = target: Serine/threonine-protein kinase PLK2 (Homo sapiens) (UniProt Q9NYY3); settings: Compound concentration 1000.0 nM
[28] = target: Serine/threonine-protein kinase D2 (Homo sapiens) (UniProt Q9BZL6); settings: Compound concentration 1000.0 nM
[29] = target: Receptor-interacting serine/threonine-protein kinase 1 (Homo sapiens) (UniProt Q13546); settings: Compound concentration 1000.0 nM
[30] = target: Ribosomal protein S6 kinase alpha-5 (Homo sapiens) (UniProt O75582); settings: Compound concentration 1000.0 nM
[31] = target: Ribosomal protein S6 kinase alpha-1 (Homo sapiens) (UniProt Q15418); settings: Compound concentration 1000.0 nM
[32] = target: Ribosomal protein S6 kinase alpha-2 (Homo sapiens) (UniProt Q15349); settings: Compound concentration 1000.0 nM
[33] = target: Serine/threonine-protein kinase 35 (Homo sapiens) (UniProt Q8TDR2); settings: Compound concentration 1000.0 nM
[34] = target: Tyrosine-protein kinase SYK (Homo sapiens) (UniProt P43405); settings: Compound concentration 1000.0 nM
[35] = target: Serine/threonine-protein kinase tousled-like 1 (Homo sapiens) (UniProt Q9UKI8); settings: Compound concentration 1000.0 nM
[36] = target: TRAF2 and NCK-interacting protein kinase (Homo sapiens) (UniProt Q9UKE5); settings: Compound concentration 1000.0 nM
[37] = target: Non-receptor tyrosine-protein kinase TNK1 (Homo sapiens) (UniProt Q13470); settings: Compound concentration 1000.0 nM
[38] = target: Activated CDC42 kinase 1 (Homo sapiens) (UniProt Q07912); settings: Compound concentration 1000.0 nM
[39] = target: Transient receptor potential cation channel subfamily M member 6 (Homo sapiens) (UniProt Q9BX84); settings: Compound concentration 1000.0 nM
[40] = target: Testis-specific serine/threonine-protein kinase 3 (Homo sapiens) (UniProt Q96PN8); settings: Compound concentration 1000.0 nM
[41] = target: Tyrosine-protein kinase TXK (Homo sapiens) (UniProt P42681); settings: Compound concentration 1000.0 nM
[42] = target: Wee1-like protein kinase 2 (Homo sapiens) (UniProt P0C1S8); settings: Compound concentration 1000.0 nM
[43] = target: D(1A) dopamine receptor (Homo sapiens) (UniProt P21728); settings: Compound concentration 10.0 uM
D(1A) dopamine receptor (Homo sapiens), sequence (P21728 whole entry): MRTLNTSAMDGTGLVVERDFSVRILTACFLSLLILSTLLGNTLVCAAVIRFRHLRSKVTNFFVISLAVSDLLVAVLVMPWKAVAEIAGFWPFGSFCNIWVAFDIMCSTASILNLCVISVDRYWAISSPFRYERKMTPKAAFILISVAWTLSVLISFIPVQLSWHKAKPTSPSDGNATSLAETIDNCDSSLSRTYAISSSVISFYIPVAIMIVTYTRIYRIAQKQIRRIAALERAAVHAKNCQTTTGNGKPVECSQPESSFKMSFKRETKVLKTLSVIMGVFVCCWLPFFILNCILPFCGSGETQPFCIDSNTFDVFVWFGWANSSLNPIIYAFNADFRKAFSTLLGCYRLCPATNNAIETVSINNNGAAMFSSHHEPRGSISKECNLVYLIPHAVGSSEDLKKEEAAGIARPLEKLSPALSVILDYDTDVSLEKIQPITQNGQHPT

[44] = target: Sodium-dependent serotonin transporter (Homo sapiens) (UniProt P31645); settings: Compound concentration 10.0 uM

CN([C@@H]1CCc2c(CC(=O)O)c3ccccc3n2C1)S(=O)(=O)c1ccc(F)cc1 [MK-7246]
inactive: residual activity [1] 100% | residual activity [2] 100% | residual activity [3] 100% | residual activity [4] 100% | residual activity [5] 97% | residual activity [6] 91% | residual activity [7] 100% | residual activity [8] 100% | residual activity [9] 96% | residual activity [10] 95% | residual activity [11] 95% | residual activity [12] 100% | residual activity [13] 100% | residual activity [14] 100% | residual activity [15] 100% | residual activity [16] 93% | residual activity [17] 100% | residual activity [18] 100% | residual activity [19] 100% | residual activity [20] 100% | residual activity [21] 100% | residual activity [22] 100% | residual activity [23] 100% | residual activity [24] 100% | residual activity [25] 100% | residual activity [26] 83% | residual activity [27] 92% | residual activity [28] 100% | residual activity [29] 100% | residual activity [30] 79% | residual activity [31] 100% | residual activity [32] 84% | residual activity [33] 100% | residual activity [34] 100% | residual activity [35] 100% | residual activity [36] 79% | residual activity [37] 99% | residual activity [38] 100% | residual activity [39] 85% | residual activity [40] 100% | residual activity [41] 93% | residual activity [42] 100% | inhibition [43] 12.3% | inhibition [44] 9.29%

CN([C@@H]1CCc2c(CC(=O)O)c3cc(S(C)(=O)=O)ccc3n2C1)S(=O)(=O)c1ccc(F)cc1
inactive: residual activity [1] 85% | residual activity [2] 100% | residual activity [3] 100% | residual activity [4] 88% | residual activity [5] 77% | residual activity [6] 99% | residual activity [7] 88% | residual activity [8] 82% | residual activity [9] 98% | residual activity [10] 87% | residual activity [11] 97% | residual activity [12] 100% | residual activity [13] 100% | residual activity [14] 85% | residual activity [15] 100% | residual activity [16] 94% | residual activity [17] 100% | residual activity [18] 100% | residual activity [19] 100% | residual activity [20] 98% | residual activity [21] 98% | residual activity [22] 100% | residual activity [23] 98% | residual activity [24] 97% | residual activity [25] 100% | residual activity [26] 90% | residual activity [27] 90% | residual activity [28] 100% | residual activity [29] 93% | residual activity [30] 71% | residual activity [31] 100% | residual activity [32] 99% | residual activity [33] 100% | residual activity [34] 100% | residual activity [35] 100% | residual activity [36] 100% | residual activity [37] 91% | residual activity [38] 92% | residual activity [39] 74% | residual activity [40] 100% | residual activity [41] 74% | residual activity [42] 95% | inhibition [43] -2.96% | inhibition [44] 5.16%
